From US4921871A, “Enolamides, pharmaceutical compositions and methods of use thereof for treating inflammation” (Warner-Lambert Company, priority 1987, dated 1990)

Molecular target: T1, leukotriene receptor (Cavia porcellus, UniProt Q2NNR5)
T1 construct: Two pairs of lungs (1.3 g) from freshly sacrificed 300 g male guinea pigs; tissue Kuiper Rabbit Farm, Gary, Ind; (animals); host or cells: guinea pig lung, crude membranes
T1 sequence (Q2NNR5 1-340): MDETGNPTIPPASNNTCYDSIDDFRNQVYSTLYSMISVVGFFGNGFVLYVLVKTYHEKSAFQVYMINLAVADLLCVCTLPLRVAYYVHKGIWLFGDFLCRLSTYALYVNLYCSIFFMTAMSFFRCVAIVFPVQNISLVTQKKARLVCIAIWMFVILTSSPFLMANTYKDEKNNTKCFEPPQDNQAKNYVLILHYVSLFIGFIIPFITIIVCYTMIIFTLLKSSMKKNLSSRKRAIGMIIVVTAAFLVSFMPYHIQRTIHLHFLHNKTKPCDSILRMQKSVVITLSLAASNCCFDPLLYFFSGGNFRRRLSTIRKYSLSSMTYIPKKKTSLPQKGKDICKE
Assay: Binding of 3H-Leukotriene D4 to Guinea Pig Lung Membranes (RBL)
Details: 1.00 E -4 M
Method: Additionally, the activity, of the compounds having the Formula I of the present invention is determined by the well known leukotriene receptor binding assay that is described by R. F. Bruns, W. J. Thomsen and T. A. Pugsley in Life Sciences, 33, 645 (1983) or the Herxheimer in vivo antiallergy test described in H. Herxheimer, J. Physiol. (London), Vol. 177, p. 251 (1952).
[14,15-^3 H]leukotriene D4 (^3 H-LTD4) (25 Ci/mmol and 40 Ci/mmol) is purchased from New England Nuclear. Unlabeled LTC4 is a gift of Ono Pharmaceuticals (Japan). LTC4, LTD4, and LTE4 are purchased as methyl esters from Paesel GmbH (Frankfurt, W. Germany). Concentrations of the Paesel leukotrienes are calculated from their absorbance at 280 nm. Leukotriene esters are saponified overnight under N2 in 3.3% potassium carbonate at room temperature. Tritiated leukotrienes are stored as received from New England Nuclear at -20° C. Ono LTC4 (5 μg/ml) is stored at -60° C. in phosphate buffer pH - 6.8. Saponified Paesel leukotrienes are stored at -60° C. in 3.3% potassium carbonate (pH 9.0-9.5). Aliquots of leukotrienes are taken from stock solutions immediately after thawing, after which the stock solutions are immediately refrozen. 2-Amino-2-(hydroxymethyl)-1,3-propanediol (Tris) is Sigma pH 7.7 pre-set crystals, and dimethylsulfoxide is Aldrich Gold Label. Preparation of crude lung membranes
Two pairs of lungs (1.3 g) from freshly sacrificed 300 g male guinea pigs (older animals gave substantially lower binding) from Kuiper Rabbit Farm, Gary, Ind. are disrupted with a Polytron PT 10 (setting 4) for 30 seconds in 20 ml ice-cold 50 mM Tris adjusted with HCl to pH 7.7 at 25° C. (Tris buffer), filtered through a single layer of gauze to remove connective tissue, and centrifuged at 50,000 xg for ten min. The pellet is resuspended by homogenization with a Polytron in 20 ml Tris buffer, centrifuged at 50,000 xg for ten min., resuspended, incubated at 37° C. for 30 minutes, and centrifuged again. The final pellet is resuspended in Tris buffer and either used fresh or stored at -70° C.
All incubations are in triplicate for 60 minutes at 25° C. in 12×75 mm polystyrene tubes containing 1 ml Tris buffer with 20 mg original tissue wet weight of guinea pig lung membranes, 0.2 nM ^3 H-LTD4 (6,000-11,000 cpm), 10 mM MgCl2, and 1% dimethylsulfoxide. Leukotrienes are diluted in Tris buffer. All other test compounds dissolved at 10 mM in dimethylsulfoxide on the same day as the experiment, and diluted in dimethylsulfoxide to 100× the final incubation concentration. Control incubations receive an equal volume (10 μl) of dimethylsulfoxide; the resulting concentration of dimethylsulfoxide had no effect on binding. ^3 H-LTD4 is diluted to 2 nM in Tris buffer. The membrane suspension (20 mg/0.89 ml) contains sufficient MgCl2 to give 10 mM final concentration in the incubation. […] All additions are performed at 0° C. Immediately after the last addition, the incubation is initiated by agitating the rack of tubes on a vortex mixer and warming to 25° C. in a water bath. Tubes are vortexed at least once more during the incubation to ensure that the membranes remained suspended. Incubations are terminated after 60 minutes by filtering under reduced pressure through 25 mm Whatman GF/B filters followed by rapid washing three times with 4 ml of ice-cold Tris buffer. Filters are added to scintillation vials with 8 ml Formula 947 (New England Nuclear), left overnight, shaken, and the radioactivity counted in a scintillation counter (efficiency 40%). Nonspecific binding, defined as binding of ^3 H-LTD4 in the presence of 100 nM LTC4, is 300-500 cpm for all lots of ^3 H-LTD4. Binding to the filters in the absence of tissue is about 100 cpm, and is not affected by unlabeled LTC4. Specific binding, defined as total binding minus nonspecific binding, varied considerably from lot to lot of ^3 H-LTD4. […]

SMILES	RBL, % Inhibition [%]
O=C(Nc1ccc(CCc2ccc(Cl)c(Cl)c2)cc1)C(=O)c1sc2ccccc2c1O [Example 136, Benzo[b]thiophene-2-acetamide, N-[4-[2-(3,4-dichlorophenyl)ethyl]phenyl]-3-hydroxy-α-oxo]	11.0
COc1c(C(=O)Nc2ccc(CCc3ccc(Cl)c(Cl)c3)cc2)sc2ccccc12 [Example 147, Benzo[b]thiophene-2-carboxamide, N-[4-[2-(3,4-dichlorophenyl)ethyl]phenyl]-3-methoxy]	3.0
